Test results taken from patent US20050282814A1, “Vasculostatic agents and methods of use thereof” (TargeGen, Inc., priority 2002, published 2005).
Structures can show the parent of a compound that is named as a salt.

What was measured:
cerebral stroke = assay: Cerebral stroke model, permanent middle cerebral artery occlusion; assay type: in vivo, mice; details: 1 mg/kg BW IV 60 min after ligation, 24 hours
Method: A rodent model of cerebral stroke, in which the middle cerebral artery is permanently occluded, was used to determine whether test agents reduced infarct size at 24 hours.
Cerebral strokes were created in mice by permanent ligation of the middle cerebral artery using a cauterizing tool, followed 60 min later by IV injection of either vehicle alone (50% PEG400 in water) or test agents (at 1 mg/kg BW). Twenty four hours later, brains were sectioned and stained using triphenyltetrazolium chloride to delineate viable from infarcted tissue. Photographic images were then analyzed using morphometric software to calculate infarct area.

acute myocardial infarct = assay: Rat acute myocardial infarct model (60 min LAD occlusion, reperfusion); assay type: in vivo, Sprague-Dawley rats; details: 1.5 mg/kg IV at 90 min post-reperfusion, 24 hr
Method: A rodent model of acute myocardial infarct, in which the proximal left anterior descending coronary artery (LAD) is occluded for 60 min followed by reperfusion, was used to determine whether test agents reduced infarct size at 24 hours.
Myocardial infarcts were created in Sprague-Dawley rats (200-300 g body weight) by a 60 min occlusion of the LAD followed by LAD reperfusion. At 90 min post-reperfusion, either vehicle alone or test agents were injected IV. At 24 hr post-treatment, the ischemic zone (area at-risk, AAR) was delineated by re-ligation of the LAD followed by IV injection of alkali blue dye, after which hearts were sectioned along the short axis and stained using triphenyltetrazolium chloride to delineate viable from infarcted myocardium. Photographic images were then analyzed using morphometric software to calculate infarct area as a percent of the at-risk area.
The following studies were performed as described above, except that the timing of 3-[2,4-diamino-6-(3-hydroxyphenyl)pteridin-7-yl] phenol dihydrochloride salt administration (at 0.1 mg/kg) was varied. In one group, 3-[2,4-diamino-6-(3-hydroxyphenyl)pteridin-7-yl] phenol dihydrochloride salt was administered at both 60 and 240 min post-occlusion.
In a porcine MI model (90 min of LAD occlusion followed by complete reperfusion), a single 0.3 mg/kg IV bolus delivered 30 min post-reperfusion reduced infarct size by […] vs. controls (40% vs. 56%, N=12-13, P=0.03).

[1] = tested on: Lewis lung carcinoma cells; assay: Lewis lung carcinoma lung metastases model, alone or with doxorubicin; assay type: in vivo, Balb/C mice; details: I.P. every 3 days for 3 cycles
Method: (§1) Syngeneic Lewis lung carcinoma cells were injected I.V. in order to establish lung metastases in Balb/C mice. Beginning 10 days after cells were injected, doxorubicin (3 mg/kg) and/or 6,7-bis(4-hydroxyphenyl)-pteridin-4-ylamine, sulfate salt (various doses as shown) was given I.P. every 3 days for 3 cycles. Animals were sacrificed at day 20, lungs were collected, and weighed. Net tumor burden is the weight of tumor-bearing lungs minus the average weight of normal control lungs. N=5/group, p<0.02.
as §1, with “The following experiments show the use of vasculostatic agents of the invention alone and in combination with chemotherapeutic agents for treatment of cancer. […] In the experiment shown in FIG. 2, syngeneic” for “Syngeneic”, “mgikg)” for “mg/kg)”, “salt, (compound A—various” for “salt (various”

[2] = tested on: CT-26 Colon carcinoma cells; assay: CT-26 colon carcinoma lung metastases model, alone or with doxorubicin or docetaxel; assay type: in vivo, Balb/C mice; details: CT-26 lung metastases; I.P. every 3 days for 3 cycles; day 20
Method: FIG. 3 illustrates the effect of compounds administered in conjunction with doxorubicin in an in vivo model of metastatic colon cancer (CT-26 adenocarcinoma). Syngeneic CT-26 Colon carcinoma cells were injected I.V. in order to establish lung metastases in Balb/C mice. Beginning 10 days after cells were injected, indicated test agents were given I.P. every 3 days for 3 cycles. Animals were sacrificed at day 20, lungs were collected, and weighed. Net tumor burden is the weight of tumor-bearing lungs minus the average weight of normal control lungs. N=5/group, p<0.02. In these graphs, compound A is 6,7-bis(4-hydroxyphenyl)-pteridin-4-ylamine sulfate salt, and compound B is 6,7-diphenyl-pteridine-2,4-diamine.
FIG. 4 illustrates the effects of compounds of the present invention for co-drug therapy with Taxotere as described herein. Syngeneic CT-26 Colon carcinoma cells were used in order to establish lung metastases in Balb/C mice as described for FIG. 3. 6,7-bis(4-hydroxyphenyl)-pteridin-4-ylamine, sulfate salt (compound A) and 6,7-diphenyl-pteridine-2,4-diamine (compound B) from FIG. 1 are shown in FIG. 4.
FIG. 6 illustrates the effect of compounds administered in conjunction with docetaxel in the in vivo model of metastatic colon cancer (CT-26 adenocarcinoma) described for FIG. 4. N=5/group, p<0.02. […]

For Nc1ncnc2nc(-c3ccc(O)cc3)c(-c3ccc(O)cc3)nc12 [compound A, 6,7-bis(4-hydroxyphenyl)-pteridin-4-ylamine sulfate salt], the “Infarct area in mm^3 (mean ± SEM)” value (cerebral stroke) was 18.3 ± 2.6 mm^3, the “% Infarct reduction” value (cerebral stroke; vs vehicle) was 53% and the “Infarct (% AAR, mean ± SEM)” value (acute myocardial infarct) was 60.6 ± 1.8 % AAR. The “% Infarct reduction” value (acute myocardial infarct; vs vehicle) was 20%, the “reduction of tumor burden as a stand alone agent” value ([1]; lungs weighed at day 20) was 25% and the “reduction of tumor burden in combination with doxorubicin” value ([1]; doxorubicin 3 mg/kg, day 20) was “greater than 90%”. For the same molecule, the “reduction of tumor burden in combination with docetaxel” value [2] was “greater than 80%” and the “reduction of tumor burden in combination with doxorubicin” value [2] was “greater than 60%”.
